Test results as given in ChEMBL document CHEMBL1681651, “A broad spectrum anticancer nucleoside with selective toxicity against human colon cells in vitro” (2011).

Legend:
Format in all cases: functional
[1] = test system: MCF7; assay: Growth inhibition of human MCF7 cells assessed as cell growth at 0.1 uM after 48 hrs by SRB assay; settings: MCF7, 48 h, read-out: Activity
[2] = test system: OVCAR-4; assay: Growth inhibition of human OVCAR4 cells assessed as cell growth at 1 uM after 48 hrs by SRB assay; settings: OVCAR-4, 48 h, read-out: Activity
[3] = test system: RXF 393; assay: Growth inhibition of human RXF393 cells assessed as cell growth at 10 uM after 48 hrs by SRB assay; settings: RXF 393, 48 h, read-out: Activity
[4] = test system: HCC 2998; assay: Growth inhibition of human HCC2998 cells assessed as cell growth at 100 uM after 48 hrs by SRB assay; settings: HCC 2998, 48 h, read-out: Activity
[5] = test system: OVCAR-3; assay: Growth inhibition of human OVCAR3 cells assessed as cell growth at 0.1 uM after 48 hrs by SRB assay; settings: OVCAR-3, 48 h, read-out: Activity
[6] = test system: UACC-62; assay: Growth inhibition of human UACC62 cells assessed as cell growth at 0.1 uM after 48 hrs by SRB assay; settings: UACC-62, 48 h, read-out: Activity
[7] = test system: MDA-MB-435; assay: Growth inhibition of human MDA-MB-435 cells after 48 hrs by SRB assay; settings: MDA-MB-435, 48 h
[8] = test system: KM12; assay: Growth inhibition of human KM12 cells assessed as cell growth at 1 mM after 48 hrs by SRB assay; settings: KM12, 48 h, read-out: Activity
[9] = test system: UO-31; assay: Growth inhibition of human UO31 cells assessed as cell growth at 1 mM after 48 hrs by SRB assay; settings: UO-31, 48 h, read-out: Activity
[10] = test system: COLO 205; assay: Growth inhibition of human COLO205 cells after 48 hrs by […] growth inhibition assay; settings: COLO 205, 48 h
[11] = test system: SF-268; assay: Growth inhibition of human SF268 cells assessed as cell growth at 1 uM after 48 hrs by SRB assay; settings: SF-268, 48 h, read-out: Activity
[12] = test system: IGROV-1; assay: Growth inhibition of human IGROV1 cells assessed as cell growth at 100 uM after 48 hrs by SRB assay; settings: IGROV-1, 48 h, read-out: Activity
[13] = test system: HT-29; assay: Growth inhibition of human HT-29 cells assessed as cell growth at 100 uM after 48 hrs by SRB assay; settings: HT-29, 48 h, read-out: Activity
[14] = test system: OVCAR-4; assay: Growth inhibition of human OVCAR4 cells assessed as cell growth at 100 uM after 48 hrs by SRB assay; settings: OVCAR-4, 48 h, read-out: Activity
[15] = test system: HCT-116; assay: Growth inhibition of human HCT116 cells assessed as cell growth at 1 mM after 48 hrs by SRB assay; settings: HCT-116, 48 h, read-out: Activity
[16] = test system: UO-31; assay: Growth inhibition of human UO31 cells assessed as cell growth at 0.1 uM after 48 hrs by SRB assay; settings: UO-31, 48 h, read-out: Activity
[17] = test system: HCC 2998; assay: Growth inhibition of human HCC2998 cells assessed as cell growth at 1 mM after 48 hrs by SRB assay; settings: HCC 2998, 48 h, read-out: Activity
[18] = test system: NCI-H460; assay: Growth inhibition of human NCI-H460 cells assessed as cell growth at 1 mM after 48 hrs by SRB assay; settings: NCI-H460, 48 h, read-out: Activity
[19] = test system: DU-145; assay: Growth inhibition of human DU145 cells assessed as cell growth at 100 uM after 48 hrs by SRB assay; settings: DU-145, 48 h, read-out: Activity
[20] = test system: SNB-75; assay: Growth inhibition of human SNB75 cells assessed as cell growth at 1 uM after 48 hrs by SRB assay; settings: SNB-75, 48 h, read-out: Activity
[21] = test system: SK-OV-3; assay: Growth inhibition of human SKOV3 cells assessed as cell growth at 0.1 uM after 48 hrs by SRB assay; settings: SK-OV-3, 48 h, read-out: Activity
[22] = test system: IGROV-1; assay: Growth inhibition of human IGROV1 cells assessed as cell growth at 10 uM after 48 hrs by SRB assay; settings: IGROV-1, 48 h, read-out: Activity
[23] = test system: SK-MEL-28; assay: Growth inhibition of human SK-MEL-28 cells after 48 hrs by […] growth inhibition assay; settings: SK-MEL-28, 48 h
[24] = test system: T47D; assay: Growth inhibition of human T47D cells assessed as cell growth at 10 uM after 48 hrs by SRB assay; settings: read-out: Activity
[25] = test system: Malme-3M; assay: Growth inhibition of human MALME-3M cells assessed as cell growth at 0.1 uM after 48 hrs by SRB assay; settings: read-out: Activity
[26] = test system: OVCAR-4; assay: Growth inhibition of human OVCAR4 cells assessed as cell growth at 10 uM after 48 hrs by SRB assay; settings: OVCAR-4, 48 h, read-out: Activity
[27] = test system: UACC-257; assay: Growth inhibition of human UACC257 cells assessed as cell growth at 100 uM after 48 hrs by SRB assay; settings: UACC-257, 48 h, read-out: Activity
[28] = test system: CAKI-1; assay: Growth inhibition of human Caki1 cells after 48 hrs by […] growth inhibition assay; settings: CAKI-1, 48 h
[29] = test system: MDA-MB-468; assay: Growth inhibition of human MDA-MB-468 cells after 48 hrs by […] growth inhibition assay; settings: MDA-MB-468, 48 h
[30] = test system: SF-539; assay: Growth inhibition of human SF539 cells assessed as cell growth at 10 uM after 48 hrs by SRB assay; settings: SF-539, 48 h, read-out: Activity
[31] = test system: ACHN; assay: Growth inhibition of human ACHN cells after 48 hrs by […] growth inhibition assay
[32] = test system: SN12C; assay: Growth inhibition of human SN12C cells assessed as cell growth at 100 uM after 48 hrs by SRB assay; settings: read-out: Activity
[33] = test system: A549; assay: Growth inhibition of human A549 cells assessed as cell growth at 10 uM after 48 hrs by SRB assay; settings: A549, 48 h, read-out: Activity
[34] = test system: MCF7; assay: Growth inhibition of human MCF7 cells assessed as cell growth at 100 uM after 48 hrs by SRB assay; settings: MCF7, 48 h, read-out: Activity
[35] = read-out: LC50 (the source's name)
[36] = read-out: pLC50 (the source's name) (converted)

CNC(=O)NC[C@H]1O[C@@H](n2cnc3c(NC(=O)Nc4ccccc4)ncnc32)[C@H](O[Si](C)(C)C(C)(C)C)[C@@H]1CC(=O)N(C)OC
growth at 0.1 µM [1]: 91% | growth at 1 µM [2]: 100% | growth at 10 µM [3]: 98% | growth at 100 µM [4]: 66% | growth at 0.1 µM [5]: 95% | growth at 0.1 µM [6]: 102% | GI50 ([7]; read-out: GI50): 10.9 µM | LC50 ([7]; read-out: LC50): > 100 µM | TGI ([7]; read-out: TGI): > 100 µM | GI50 ([7]; read-out: pGI50 (converted)): 11 µM | LC50 ([7]; read-out: pLC50 (converted)): > 100 µM | TGI ([7]; read-out: pTGI (converted)): > 100 µM | growth at 1000 µM [8]: 30% | growth at 1000 µM [9]: 32% | GI50 ([10]; read-out: GI50): 12.3 µM | CC50 [10, 35]: > 100 µM | TGI ([10]; read-out: TGI): > 100 µM | GI50 ([10]; read-out: pGI50 (converted)): 12.3 µM | CC50 [10, 36]: > 100 µM | TGI ([10]; read-out: pTGI (converted)): > 100 µM | growth at 1 µM [11]: 105% | growth at 100 µM [12]: 26% | growth at 100 µM [13]: 32% | growth at 100 µM [14]: 60% | growth at 1000 µM [15]: 6% | growth at 0.1 µM [16]: 89% | growth at 1000 µM [17]: 33% | growth at 1000 µM [18]: 25% | growth at 100 µM [19]: 60% | growth at 1 µM [20]: 95% | growth at 0.1 µM [21]: 96% | growth at 10 µM [22]: 82% | GI50 ([23]; read-out: GI50): 7.77 µM | CC50 [23, 35]: > 100 µM | TGI ([23]; read-out: TGI): > 100 µM | GI50 ([23]; read-out: pGI50 (converted)): 7.76 µM | CC50 [23, 36]: > 100 µM | TGI ([23]; read-out: pTGI (converted)): > 100 µM | growth at 10 µM [24]: 84% | growth at 0.1 µM [25]: 103% | growth at 10 µM [26]: 96% | growth at 100 µM [27]: 65% | GI50 ([28]; read-out: GI50): 53.8 µM | CC50 [28, 35]: > 100 µM | TGI ([28]; read-out: TGI): > 100 µM | GI50 ([28]; read-out: pGI50 (converted)): 53.7 µM | CC50 [28, 36]: > 100 µM | TGI ([28]; read-out: pTGI (converted)): > 100 µM | CC50 [29, 35]: > 100 µM | growth at 10 µM [30]: 89% | GI50 ([31]; read-out: GI50): 14.4 µM | CC50 [31, 35]: > 100 µM | TGI ([31]; read-out: TGI): > 100 µM | GI50 ([31]; read-out: pGI50 (converted)): 14.5 µM | CC50 [31, 36]: > 100 µM | TGI ([31]; read-out: pTGI): > 100 µM | growth at 100 µM [32]: 66% | growth at 10 µM [33]: 97% | growth at 100 µM [34]: 34%

CNC(=O)NC[C@H]1O[C@@H](n2cnc3c(NC(=O)Nc4ccccc4)ncnc32)[C@H](O[Si](C)(C)C(C)(C)C)[C@@H]1O[Si](C)(C)C(C)(C)C
growth at 0.1 µM [1]: 99% | growth at 1 µM [2]: 108% | growth at 10 µM [3]: 111% | growth at 100 µM [4]: -79% | growth at 0.1 µM [5]: 111% | growth at 0.1 µM [6]: 102% | GI50 ([7]; read-out: GI50): 3.41 µM | LC50 ([7]; read-out: LC50): > 100 µM | TGI ([7]; read-out: TGI): 29.1 µM | GI50 ([7]; read-out: pGI50 (converted)): 3.39 µM | LC50 ([7]; read-out: pLC50 (converted)): > 100 µM | TGI ([7]; read-out: pTGI (converted)): 28.8 µM | growth at 1000 µM [8]: -74% | growth at 1000 µM [9]: -21% | GI50 ([10]; read-out: GI50): 1.89 µM | CC50 [10, 35]: 5.98 µM | TGI ([10]; read-out: TGI): 3.36 µM | GI50 ([10]; read-out: pGI50 (converted)): 1.91 µM | CC50 [10, 36]: 6.03 µM | TGI ([10]; read-out: pTGI (converted)): 3.39 µM | growth at 1 µM [11]: 106% | growth at 100 µM [12]: -12% | growth at 100 µM [13]: -80% | growth at 100 µM [14]: 7% | growth at 1000 µM [15]: -100% | growth at 0.1 µM [16]: 87% | growth at 1000 µM [17]: -91% | growth at 1000 µM [18]: -75% | growth at 100 µM [19]: -35% | growth at 1 µM [20]: 95% | growth at 0.1 µM [21]: 108% | growth at 10 µM [22]: 98% | CC50 [23, 35]: 28.3 µM | growth at 10 µM [24]: 92% | growth at 0.1 µM [25]: 105% | growth at 10 µM [26]: 100% | growth at 100 µM [27]: 11% | GI50 ([28]; read-out: GI50): 2.7 µM | CC50 [28, 35]: > 100 µM | TGI ([28]; read-out: TGI): 7.93 µM | GI50 ([28]; read-out: pGI50 (converted)): 2.69 µM | CC50 [28, 36]: > 100 µM | TGI ([28]; read-out: pTGI (converted)): 7.94 µM | GI50 ([29]; read-out: GI50): 3.35 µM | CC50 [29, 35]: > 100 µM | TGI ([29]; read-out: TGI): 13.9 µM | GI50 ([29]; read-out: pGI50 (converted)): 3.39 µM | CC50 [29, 36]: > 100 µM | TGI ([29]; read-out: pTGI (converted)): 13.8 µM | growth at 10 µM [30]: 91% | GI50 ([31]; read-out: GI50): 3.83 µM | CC50 [31, 35]: > 100 µM | TGI ([31]; read-out: TGI): > 100 µM | GI50 ([31]; read-out: pGI50 (converted)): 3.8 µM | CC50 [31, 36]: > 100 µM | TGI ([31]; read-out: pTGI): > 100 µM | growth at 100 µM [32]: -87% | growth at 10 µM [33]: 90% | growth at 100 µM [34]: 6%

CNC(=O)OC[C@H]1O[C@@H](n2cnc3c(NC(=O)Nc4ccccc4)ncnc32)[C@H](O[Si](C)(C)C(C)(C)C)[C@@H]1O[Si](C)(C)C(C)(C)C
growth at 10 µM [3]: 94.2% | growth at 10 µM [22]: 111% | growth at 10 µM [24]: 116% | growth at 10 µM [26]: 85.8% | growth at 10 µM [30]: 97.1% | growth at 10 µM [33]: 80.8%
